Among the data in ChEMBL document CHEMBL6120951, “Viral Protein Dimerization Quality Control: A Design Strategy for a Potential Viral Inhibitor” (J Med Chem, 2024) are CC50, EC50 and IC50 values, retold here.

One series relates to MT4. As to the kind of experiment: Cytotoxicity against human MT4 cells assessed as reduction in cell viability incubated for 72 hrs by cell-titer glo assay. It counts as functional.
For the next series, the system named is SARS-CoV-2. As to the kind of experiment: Antiviral activity against SARS-CoV-2 infected in African green monkey Vero cells assessed as reduction in viral replication. Particulars: Severe acute respiratory syndrome coronavirus 2, Vero. It is filed as functional, organism-based.
Series [1] can be described thus: Cytotoxicity against African green monkey Vero cells assessed as reduction in cell viability after 72 hrs by MTT assay. It counts as toxicity, cell-based. Particulars: chlorocebus sabaeus. (In general: Tetrazolium assays rely on reduction of a dye to a coloured formazan, in cell work by metabolically active cells.)
A short description of series [2]: Inhibition of SARS-CoV-2 MPro using Dabcyl-KTSAVLQSGFRKME-Edans as substrate preincubated for 15 mins followed by substrate addition measured after 30 mins by FRET assay. Details: species or system Severe acute respiratory syndrome coronavirus 2.
For another series, the system named is Jurkat. As to the kind of experiment: Cytotoxicity against human Jurkat cells assessed as reduction in cell growth incubated for 24 hrs by CellTiter-Glo luminescent cell viability assay. It is filed as functional.
Series [3] deals with Human immunodeficiency virus 1. As to the kind of experiment: Antiviral activity against HIV-1 3B infected in human MT4 cells assessed as reduction in viral replication. It counts as functional, organism-based. Particulars: Human immunodeficiency virus 1, 3B.

A word on the CC50: it is the concentration giving 50% cytotoxicity. By EC50 is commonly meant the concentration needed to bring the measured effect to its halfway point. Usually IC50 stands for the concentration needed to halve the response being measured.

In the case of `O=C(Nc1cccc(Cl)c1)C1C2CCCCC21` (configuration not stated), the cytotoxic concentration (CC50) in the series on MT4 is more than 100 µM. Consider `O=C(NC1CCNCC1)c1n[nH]cc1NC(=O)c1c(Cl)cccc1Cl` [AT-7519], for which the concentration giving a half-maximal response (EC50) in the series with SARS-CoV-2 was found to be 25 µM. As for `O=C(O)c1cc(-c2ccc(-c3ccccc3)cc2)nc2ccccc12`, in series [1], the 50% cytotoxic concentration (CC50) at 72 h is more than 50 µM. The compound further showed an IC50 in series [2] of 0.48 µM.

`Cc1[nH]c2ccccc2c1CC(=O)N[C@@H](Cc1ccccc1)C(=O)N(C)c1ccccc1`: the CC50 in the series with Jurkat is more than 47 µM. Turning to `O=C1NC(c2ccc(O)cc2)C2C(c3ccccc3)=NNC12` (configuration not stated), the EC50 in series [3] stood at 1.8 µM. In addition, in the series on Jurkat, the CC50 is more than 43 µM. For `CC(C)OCCCNC(=O)c1csc(Nc2cc(F)c(Cl)c(F)c2)n1`, the CC50 at 72 h in series [1] was more than 100 µM. In the series on SARS-CoV-2, the 50% effective concentration (EC50) came out at 0.11 µM. For the compound `N#Cc1ccc(C(=O)Nc2sc3c(c2C(=O)Nc2ccccc2O)CCCCC3)cc1`, in series [1], the CC50 at 72 h is more than 250 µM. For the same compound, in the series on SARS-CoV-2, the EC50 was determined as 0.38 µM. Consider `CC(C)(C#Cc1ccc(-c2ccc(Cl)c3c(NS(C)(=O)=O)nn(CC(F)(F)F)c23)c([C@H](Cc2cc(F)cc(F)c2)NC(=O)Cn2nc(C(F)(F)F)c3c2C(F)(F)[C@@H]2C[C@H]32)n1)S(C)(=O)=O`, for which the EC50 in series [3] turned out to be 0.000105 µM. For `CCc1cc(-c2ccc(C(F)(F)F)o2)n(-c2ccc3c(c2)nc(-c2ccccc2O)n3Cc2ccc(=O)[nH]c2)n1`, the concentration for a half-maximal effect (EC50) in series [3] was 0.11 µM.

As for `CC1=C(C(C2=C(C)c3ccccc3C2=O)c2ccc(C)cc2)C(=O)CC(c2ccccc2)C1` (configuration not stated), the EC50 in the series with SARS-CoV-2 was 1.82 µM. For `N#Cc1ccc(Nc2nc(-c3cccnc3)nc3ccccc23)cc1`, the half-maximal effective concentration (EC50) in series [3] is 4 µM. For the same compound, the CC50 in the series on Jurkat was more than 10 µM. `CCN1C(=O)C(c2cc(O)cc(-c3cccnc3)c2)C(=O)N(c2ccccc2)c2cc(C(F)(F)F)ccc21` (configuration not stated): the EC50 in series [3] worked out at 0.48 µM. Regarding `CCOc1cc2ncc(C#N)c(Nc3ccc(F)c(Cl)c3)c2cc1NC(=O)/C=C/CN(C)C` [PELITINIB], the 50% effective concentration (EC50) in the series on SARS-CoV-2 came to 1.25 µM. `O=C(CNC(=O)c1ccc(F)cc1)Nc1ccc(Cl)nc1Cl`: the half-maximal cytotoxic concentration (CC50) with MT4 amounted to 144 µM. For `CC(C)Cc1sc(-c2nccs2)nc1C(=O)NCc1ccc(F)cc1`, the CC50 in the series on MT4 was 50.4 µM. With `CC(=O)Nc1ccc(-c2cc(C)c(=O)n(Cc3ccc(Cl)cc3)n2)cc1`, the CC50 in the series with MT4 was more than 100 µM. Consider `O=C(Nc1cc(F)c(F)c(F)c1)c1ccc(F)c(S(=O)(=O)N2CCC(O)CC2)c1`, for which, in the series with MT4, the CC50 was 14.5 µM.
